Patent publication US10738043B2, “GLS1 inhibitors for treating disease” (Board of Regents, The University of Texas System, priority 2015, dated 2020)

How the values were obtained:
[1] = target: T1, GLS1 (purified recombinant human GAC) (Homo sapiens, UniProt O94925); assay: GLS1 Enzymatic Activity Assay (dual-coupled enzymatic assay); assay type: biochemical; details: 50 mM potassium phosphate, 1 mM glutamine, read-out: IC50 against GLS1
T1 sequence (O94925 55-598 isoform O94925-3 limits assumed): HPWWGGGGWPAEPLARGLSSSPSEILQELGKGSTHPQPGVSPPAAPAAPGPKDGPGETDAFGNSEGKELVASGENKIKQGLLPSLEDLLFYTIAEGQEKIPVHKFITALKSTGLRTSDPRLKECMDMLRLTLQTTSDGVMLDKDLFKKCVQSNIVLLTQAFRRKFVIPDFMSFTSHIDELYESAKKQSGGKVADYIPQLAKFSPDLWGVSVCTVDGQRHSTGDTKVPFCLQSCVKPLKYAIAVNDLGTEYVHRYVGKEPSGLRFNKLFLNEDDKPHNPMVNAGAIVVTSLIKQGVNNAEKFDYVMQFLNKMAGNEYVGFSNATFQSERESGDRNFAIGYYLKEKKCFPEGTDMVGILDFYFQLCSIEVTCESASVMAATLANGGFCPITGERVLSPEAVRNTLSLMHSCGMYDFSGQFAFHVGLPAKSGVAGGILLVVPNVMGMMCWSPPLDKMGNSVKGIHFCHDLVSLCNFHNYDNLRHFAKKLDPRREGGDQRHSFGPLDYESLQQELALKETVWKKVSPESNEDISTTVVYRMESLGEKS
Description: GLS1 Enzymatic Activity Assay
The inhibition of purified recombinant human GAC by varying concentrations of inhibitors is assessed via a dual-coupled enzymatic assay. The glutamate produced by the glutaminase reaction is used by glutamate oxidase to produce α-ketoglutarate, ammonia, and hydrogen peroxide, with this hydrogen peroxide subsequently being used by horseradish peroxidase to produce resorufin in the presence of Amplex UltraRed. The assay buffer consisted of 50 mM HEPES (pH 7.4), 0.25 mM EDTA and 0.1 mM Triton X-100. GAC was incubated with potassium phosphate (10 minutes at room temperature) prior to incubation with inhibitor (10 minutes at room temperature). The final reaction conditions were as follows: 2 nM GAC, 50 mM potassium phosphate, 100 mU/ml glutamate oxidase (Sigma), 1 mM glutamine (Sigma), 100 mU/ml horseradish peroxidase (Sigma), 75 μM Amplex UltraRed (Life Technologies), and 1% (v/v) DMSO. The production of resorufin was monitored on a Perkin Elmer Envision plate reader (excitation 530 nm, emission 590 nm) either in a kinetics or endpoint mode (at 20 minutes). IC50 values were calculated using a four-parameter logistic curve fit.

A549 cells = assay: Proliferation Assay (A549 viability, Cell Titer Fluor, 72 hours); assay type: cell-based; details: Homo sapiens, read-out: EC50 against A549 cell proliferation
Description: A549 cells were routinely maintained in RPMI 1640 media (Gibco catalog number 11875-093) supplemented with 10% dialyzed fetal bovine serum using a humidified incubator (37° C., 5% CO2 and ambient O2). In preparation for the viability assay, cells were inoculated into 384-well black CulturPlates (Perkin Elmer) at a density of 1000 cells/well in a volume of 40 μl. Following a 24-hour incubation at 37° C., 5% CO2 and ambient 02, cells were treated with compound (10 μl) in a final DMSO concentration of 0.5% (v/v). The microplates were then incubated for 72 hours (37° C., 5% CO2 and ambient O2). Cell Titer Fluor (Promega) was subsequently added (10 μl of 6× reagent) and mixed for 15 minutes at room temperature. The plates were then incubated for 30 minutes (37° C., 5% CO2 and ambient O2) and fluorescence was subsequently read on the Perkin Elmer Envision plate reader. EC50 values were calculated using a four-parameter logistic curve fit.

SMILES	IC50 [1] [µM]	EC50 (A549 cells) [µM]
CNC(=O)c1nnc(N2CCC(c3ccc(NC(=O)Cc4ccccn4)nn3)C2)s1 (stereo not drawn) [Example 41, N-methyl-5-(3-(6-(2-(pyridin-2-yl)acetamido)pyridazin-3-yl)pyrrolidin-1-yl)-1,3,4-thiadiazole-2-carboxamide]	0.1 to 0.5	0.1 to 0.5
CC(=O)Nc1cn(C2CCN(c3ccc(NC(=O)Cc4cccc(OC(F)(F)F)c4)nn3)C2)nn1 (stereo not drawn) [Example 11, N-(6-(3-(4-acetamido-1H-1,2,3-triazol-1-yl)pyrrolidin-1-yl)pyridazin-3-yl)-2-(3-(trifluoromethoxy)phenyl)acetamide]	0.1 to 0.5	0.5 to 5
O=C(Cc1cccc(OC(F)(F)F)c1)Nc1ccc(N2CCC(c3nnc(NC(=O)Cc4ccccc4F)s3)C2)nn1 (stereo not drawn) [Example 20, 2-(2-fluorophenyl)-N-(5-(1-(6-(2-(3-(trifluoromethoxy)phenyl)acetamido)pyridazin-3-yl)pyrrolidin-3-yl)-1,3,4-thiadiazol-2-yl)acetamide 2,2,2-trifluoroacetate]	< 0.1	0.1 to 0.5
Cn1ccc(CNC(=O)c2nnc(N3CCC(c4ccc(NC(=O)Cc5ccccn5)nn4)C3)s2)n1 (stereo not drawn) [Example 37, N-((1-methyl-1H-pyrazol-3-yl)methyl)-5-(3-(6-(2-(pyridin-2-yl)acetamido)pyridazin-3-yl)pyrrolidin-1-yl)-1,3,4-thiadiazole-2-carboxamide]	< 0.1	0.1 to 0.5
O=C(Cc1ccccn1)Nc1ccc(C2CCN(c3nnc(C(=O)NCc4cc(C(F)(F)F)ccn4)s3)C2)nn1 (stereo not drawn) [Example 38, 5-(3-(6-(2-(pyridin-2-yl)acetamido)pyridazin-3-yl)pyrrolidin-1-yl)-N-((4-(trifluoromethyl)pyridin-2-yl)methyl)-1,3,4-thiadiazole-2-carboxamide]	< 0.1	< 0.1
Cn1cc(CC(=O)Nc2nnc(C3CCCN(c4ccc(NC(=O)Cc5cccc(OC(F)(F)F)c5)nn4)C3)s2)cn1 (stereo not drawn) [Example 24, 2-(1-Methyl-1H-pyrazol-4-yl)-N-(5-(1-(6-(2-(3-(trifluoromethoxy)phenyl)acetamido)pyridazin-3-yl)piperidin-3-yl)-1,3,4-thiadiazol-2-yl)acetamide]	< 0.1	0.5 to 5
Nc1nnc(C2CCN(c3ccc(NC(=O)Cc4cccc(OC(F)(F)F)c4)nn3)C2)s1 (stereo not drawn) [Example 19, N-(6-(3-(5-amino-1,3,4-thiadiazol-2-yl)pyrrolidin-1-yl)pyridazin-3-yl)-2-(3-(trifluoromethoxy)phenyl)acetamide]	0.1 to 0.5	0.5 to 5
Nc1nnc(C2CCCN(c3ccc(NC(=O)Cc4ccccc4)nn3)C2)s1 (stereo not drawn) [Example 1, N-(6-(3-(5-Amino-1,3,4-thiadiazol-2-yl)piperidin-1-yl)pyridazin-3-yl)-2-phenylacetamide]	0.1 to 0.5	0.5 to 5
O=C(Nc1ccc(N2CCC(n3cc(C(=O)NCc4ccccn4)nn3)C2)nn1)OCc1ccccc1 (stereo not drawn) [Example 5, Benzyl (6-(3-(4-((pyridin-2-ylmethyl)carbamoyl)-1H-1,2,3-triazol-1-yl)pyrrolidin-1-yl)pyridazin-3-yl)carbamate]	0.5 to 5	0.5 to 5
